Source: patent publication US10961279B2 (priority 2011, dated 2021)

Tested on: CTLL-2 cells
Format: cell-based

Sequence	effect of the dimeric peptides on proliferation of CTLL-2 cells (synthesis of new DNA)
GLFAGFIENGWEGCGGEKEKEK [non-IS #2]	no significant effect
GLFGAAGFIENGWEGCGGEKEKEK [non-IS #1]	much less
